Literature values, collected in patent publication US4729992A, “Cephalosporin esters, their production and use” (Tatsuo Chemical Ind., Ltd., priority 1984, dated 1988).

Tests used:
Details in all cases: Antimicrobial Agent and Chemotherapy 14, 557-568 (1978)
[1] = system: Proteus mirabilis
[2] = system: Escherichia coli
[3] = system: Klebsiella pneumoniae
[4] = system: Proteus vulgaris
[5] = system: Proteus morganii
[6] = system: Staphylococcus aureus

Measured: antibacterial activity

CN(C)CCn1nnnc1SCC1=C(C(=O)O)N2C(=O)[C@@H](NC(=O)Cc3csc(N)n3)[C@H]2SC1 [compound [II], 7β-[2-(2-aminothiazol-4-yl)acetamido]3-[[[1-(2-dimethylaminoethyl)-1H-tetrazol-5-yl]thio]methyl]ceph-3-em-4-carboxylic acid]
potent antibacterial activity: all assays above
